In patent US9944607B2, “Thiohydantoin derivatives and uses thereof” (Whitehead Institute for Biomedical Research, priority 2012, dated 2018):
pIC50: −log10 of the molar value. Where two headings read alike, the source gives them in different places.

How the values were obtained:
[1] = PBS stability; format: physicochemical; conditions: PBS pH 7.4, 23° C.
Procedure: Stability was determined in the presence of PBS pH 7.4 with 0.1% DMSO. […] One plate was removed at each time point (0, 2, 4, 8, 24, and 48 hours). […] Additionally, to the remaining material at each time point, acetonitrile was added to force dissolution of compound (to test for recovery of compound). An aliquot of this was also analyzed by UPLC-MS.

[2] = system: mitochondrial membrane potential of S. cerevisiae; assay: Secondary mitochondrial disruption assay (JC-1 dye, flow cytometry); format: cell-based, Saccharomyces cerevisiae; conditions: living S. cerevisiae treated with 1 μM compound; AIDs 624062, 624068
Procedure: Procedures • Use a Thermo Combi nL to dispense 20 μL/well of assay media into all wells. • Add 2 μL of Amphotericin B to control wells. • Pin 100 nL of test compound from compound plates into assay plates using a CyBi-Well pin tool. • Dispense 20 μL/well of culture into the assay media in all wells. • Incubate the plates in a humidified (90% humidity) Liconic incubator at 37° C. without agitation for 48 hours. • Shake plates briefly. • Read OD600 of wells on a standard plate reader as measure of relative fungal growth. Envision (Perkin Elmer) plate reader settings: Ex Photometric 600, Top read. 4.5. Secondary Mitochondrial Disruption Assay (AID No. 624062 and 624068)
The fluorescent dye JC-1 was used to quantify the ability of compounds to disrupt the mitochondrial membrane potential of fungi. Mitochondrial membrane depolarization is indicated by a decrease in the yellow/green fluorescence intensity ratio. This is a non-gating, binning assay that establishes whether inhibition of fungal growth in glycerol results from direct compromise of mitochondrial function or alternative components of fungal respiratory metabolism. Probes that disrupt mitochondrial function as well as those that perturb other metabolic components are desirable. […]
Additionally, direct impairment of mitochondrial function in C. glabrata and S. cerevisiae was assessed using a fluorescence assay.

[3] = system: Candida albicans CaCi-2; assay: Broth microdilution growth inhibition of C. albicans CaCi-2 in presence or absence of fluconazole; format: cell-based; conditions: CACI2, RPMI media
Procedure: Growth inhibition of I-B-4 (ML316) against Candida albicans CaCi-2 in the presence or absence of fluconazole was assessed using the broth microdilution method with RPMI media.

[4] = system: Candida albicans strain SC5314; assay: Colony counts over time, C. albicans SC5314 in RPMI (FIG. 14); format: cell-based; conditions: colonies counted after 24 and 48 hours
Procedure: Compound I-B-4 (ML316) was studied in fluconazole-sensitive Candida albicans strain SC5314. The SC5314 strain was inoculated into RPMI media at 10^3 CFU/mL in the presence or absence of 5 μM I-B-4 (ML316) and 32 ug/mL fluconazole. Colonies were plated from the cultures after 24 and 48 hours and counted.

[5] = system: Candida albicans CaCi-2; assay: Colony counts over time, C. albicans CaCi-2 in RPMI (FIG. 15); format: cell-based; conditions: colonies counted after 24 and 48 hours
Procedure: […] The CaCi-2 strain was inoculated into RPMI media at 10^3 CFU/mL in the presence or absence of 5 μM I-B-4 (ML316) and 32 ug/mL fluconazole. Colonies were plated from the cultures after 24 and 48 hours and counted.

[6] = biological target: S. cerevisiae cytochrome bc1 complex (Saccharomyces cerevisiae, UniProt P00163); conditions: cited from earlier work
[7] = biological target: bovine bc1 complex (Bos taurus, UniProt P00157); conditions: read-out: IC50, isolated bovine bc1 complex; studies by Trumpower et al.; cited from earlier work
[8] = system: HeLa cells; conditions: Hayakawa et al. 1971, cited from earlier work
[9] = 5 μM I-B-4 and 32 ug/mL fluconazole

SMILES | Stability in PBS solution, % remaining after a 48-hour incubation [1] | Depolarization of the mitochondrial membrane (JC-1 dye) [2] | pIC50 ([3]; absence of fluconazole (FIG. 8), read-out: IC50 against C. albicans CaCi-2 growth, compound alone) | pIC50 ([3]; presence of fluconazole (FIG. 8), read-out: IC50 against C. albicans CaCi-2 growth, with FCZ) | Cytotoxicity to fluconazole-sensitive C. albicans SC5314, compound alone ([4]; 5 μM I-B-4) | Cytotoxicity to fluconazole-sensitive C. albicans SC5314, combination with fluconazole (FCZ) [4, 9] | Cytotoxicity to fluconazole-resistant C. albicans CaCi-2, compound alone ([5]; 5 μM I-B-4) | Cytotoxicity to fluconazole-resistant C. albicans CaCi-2, combination with fluconazole (FCZ) [5, 9] | Selectivity for S. cerevisiae (fungal) bc1 complex over bovine bc1 complex ([6]; biochemical assays with purified proteins, literature) | pIC50 ([6]; read-out: IC50, purified S. cerevisiae cytochrome bc1 complex, studies by Trumpower et al.) | pIC50 [7] | MIC against HeLa cells [8] | MIC against HeLa cells ([8]; same value converted)
CCOC(=O)N1C(=O)C2(CCCCC2)N(c2ccc(F)cc2)C1=S [CID 56604860, Ethyl 1-(4-fluorophenyl)-4-oxo-2-thioxo-1,3-diazaspiro[4.5]decane-3-carboxylate] | > 60% | depolarization of the mitochondrial membrane does not occur | 6.92 | 8.00 | cytotoxic | cytotoxic | cytotoxic | cytotoxic | – | – | – | – | –
C/C=C/C1[C@H]2C[C@@H](C)CC[C@@H]2C(C)=C[C@H]1C(=O)c1c(O)c(-c2ccc(O)cc2)c[nH]c1=O (stereo partly shown) [ilicicolin H, reference compound] | – | – | – | – | – | – | – | – | 100 fold | 8.52 | 6.70 | 2 µg/mL | 4.6 µM
